# According to patent publication US20120214862A1, “MODULATION OF FACTOR 7 EXPRESSION” (ISIS Pharmaceuticals, Inc., priority 2009, published 2012):
# In the oligonucleotide strings, read from the 5' end, every base follows the letter of its sugar. An asterisk marks phosphorothioate; unmarked linkages are phosphodiester. Other units and linkages are bracketed, terminal groups are in braces. A string of capitals states the bases alone. e = 2'-O-(2-methoxyethyl) (MOE); [5mC] = 5-methylcytosine; d = 2'-deoxy (DNA)
# Test system: human Factor 7 mRNA
# Experiment: Antisense inhibition of human Factor 7 mRNA in HepB3 cells, lipofectin, 50 nM, real-time RT-PCR
# Assay type: cell-based
# Details: Example 1; HepB3 cells, lipofectin, 50 nM, ~24 h, relative to untreated control cells
# Procedure: Antisense oligonucleotides targeted to a Factor 7 nucleic acid were tested for their effects on Factor 7 mRNA in vitro. Cultured HepB3 cells at a density of 4,000 cells per well were transfected using lipofectin reagent with 50 nM antisense oligonucleotide. After a treatment period of approximately 24 hours, RNA was isolated from the cells and Factor 7 mRNA levels were measured by real-time RT-PCR, as described herein. Factor 7 mRNA levels were adjusted according to total RNA content as measured by RIBOGREEN®. Results are presented as percent inhibition of Factor 7, relative to untreated control cells.
# (§1) Antisense oligonucleotides targeted to a Factor 7 nucleic acid were designed and tested for their effects on Factor 7 mRNA in vitro. Certain antisense oligonucleotides from Table 3 were also retested for their effects on Factor 7 mRNA in vitro. Cultured HepB3 cells at a density of 4,000 cells per well were transfected using lipofectin reagent with 50 nM antisense oligonucleotide. After a treatment period of approximately 24 hours, RNA was isolated from the cells and Factor 7 mRNA levels were measured by real-time RT-PCR, as described herein. Human Factor 7 primer probe set RTS 2927 was used to measure mRNA levels. Factor 7 mRNA levels were adjusted according to total RNA content as measured by RIBOGREEN®. Results are presented as percent inhibition of Factor 7, relative to untreated control.
# as §1, with “tested” for “tested for their effects on Factor 7 mRNA in vitro. Certain antisense oligonucleotides from Table 3 were also retested”
# These gapmers were designed by creating gapmers shifted slightly upstream and downstream (i.e. “microwalk”) of the original gapmers from Table 7. Gapmers were also created with various motifs, e.g. 5-10-5 MOE, 3-14-3 MOE, and 2-13-5 MOE. These gapmers were tested in vitro. Cultured HepB3 cells at a density of 4,000 cells per well were transfected using lipofectin reagent with 50 nM antisense oligonucleotide. After a treatment period of approximately 24 hours, RNA was isolated from the cells and Factor 7 mRNA levels were measured by real-time RT-PCR. Factor 7 mRNA levels were adjusted according to total RNA content, as measured by RIBOGREEN®. Results are presented as percent inhibition of Factor 7, relative to untreated control cells.
row,Substance,% Inhibition (human Factor 7 mRNA)
1,407639 (antisense eT*eT*eT*eG*e[5mC]*dA*dG*d[5mC]*d[5mC]*dA*d[5mC]*dT*d[5mC]*dG*dA*eT*eG*eT*eA*e[5mC]) [compound 407639],76%
2,407634 (antisense eG*eT*eG*eA*e[5mC]*dT*dG*d[5mC]*dT*dG*d[5mC]*dA*dG*dG*d[5mC]*eA*eG*eT*e[5mC]*e[5mC]) [compound 407634],24%
3,407922 (antisense eT*e[5mC]*eG*eA*e[5mC]*dG*d[5mC]*dA*dG*d[5mC]*d[5mC]*dT*dT*dG*dG*e[5mC]*eT*eT*eT*e[5mC]) [compound 407922],82%
4,407599 (antisense e[5mC]*e[5mC]*eT*eG*eG*dG*dA*dG*dA*d[5mC]*d[5mC]*dA*dT*dG*dA*eT*eG*eA*eA*eA) [compound 407599],73%
5,407609 (antisense eA*eG*eA*eA*eG*d[5mC]*dA*dG*dA*dT*dA*dT*dA*dG*dG*eA*e[5mC]*eT*eG*eG) [compound 407609],35%
6,407629 (antisense eT*e[5mC]*eA*eG*eT*dG*dA*dG*dG*dA*d[5mC]*d[5mC]*dA*d[5mC]*dG*eG*eG*e[5mC]*eT*eG) [compound 407629],34%
7,407930 (antisense e[5mC]*eA*eA*eT*eG*dA*dA*dG*dG*d[5mC]*dA*dG*dA*dG*d[5mC]*eA*eG*e[5mC]*eA*eG) [compound 407930],70%
8,407918 (antisense e[5mC]*e[5mC]*eT*eG*eG*dT*dG*dT*dA*d[5mC]*dA*d[5mC]*d[5mC]*d[5mC]*d[5mC]*eA*eA*eA*eG*eT) [compound 407918],72%

# Same assay, conditions: Example 4; HepB3 cells, lipofectin, 50 nM, ~24 h, relative to untreated control
row,Substance,% Inhibition (human Factor 7 mRNA)
1,422119 (antisense eG*e[5mC]*eG*eG*eA*dA*dG*dA*dA*dG*dG*dG*dA*d[5mC]*dG*eG*eA*eA*eG*eG) [compound 422119],39%
2,422263 (antisense eG*eG*dA*dA*dG*dA*dA*dG*dG*dG*dA*d[5mC]*dG*dG*dA*eA*eG*eG*eT*eG) [compound 422263],19%
3,422126 (antisense eA*e[5mC]*eT*eG*eA*dG*d[5mC]*dG*d[5mC]*dG*dG*dA*dA*dG*dA*eA*eG*eG*eG*eA) [compound 422126],22%

# Same assay, conditions: HepB3 cells, lipofectin, 50 nM antisense oligonucleotide, approximately 24 hours, primer probe set RTS 2927, relative to untreated control
row,Substance,% Inhibition of human Factor 7 mRNA levels
1,416495 (antisense eT*e[5mC]*eT*eA*eG*dA*dA*dT*dT*d[5mC]*d[5mC]*dA*dA*dA*d[5mC]*e[5mC]*e[5mC]*e[5mC]*eT*eA) [compound 416495],0%
2,416437 (antisense eA*eG*eG*e[5mC]*eA*d[5mC]*dA*d[5mC]*dT*dG*dG*dT*d[5mC]*d[5mC]*d[5mC]*e[5mC]*eA*eT*e[5mC]*eA) [compound 416437],52%
3,416486 (antisense eA*eT*eT*eG*eA*d[5mC]*dA*dA*dG*dG*dG*d[5mC]*dT*dG*dT*eG*eG*e[5mC]*eA*eG) [compound 416486],12%
4,416462 (antisense eG*eG*e[5mC]*eA*eG*dT*d[5mC]*d[5mC]*dT*dG*dG*dG*dT*d[5mC]*dA*eT*e[5mC]*eA*eG*e[5mC]) [compound 416462],60%
5,416548 (antisense eA*eG*eG*eT*eG*dA*dA*dT*dG*dA*dA*dA*dT*dT*d[5mC]*eT*eA*e[5mC]*e[5mC]*eT) [compound 416548],29%
6,416460 (antisense e[5mC]*eA*e[5mC]*e[5mC]*eA*d[5mC]*dA*dT*dG*dG*dT*d[5mC]*dA*dG*dT*eG*eA*eG*eG*eA) [compound 416460],49%
7,416478 (antisense eG*eT*e[5mC]*eT*e[5mC]*d[5mC]*dA*dG*d[5mC]*dA*dA*dT*dG*dA*dA*eG*eG*e[5mC]*eA*eG) [compound 416478],44%
8,416531 (antisense eA*eG*eA*eT*eG*dA*d[5mC]*d[5mC]*dA*dG*d[5mC]*dA*dG*dG*dA*eA*eG*e[5mC]*e[5mC]*eT) [compound 416531],19%
9,416541 (antisense e[5mC]*e[5mC]*eA*e[5mC]*e[5mC]*d[5mC]*dT*dT*dG*dG*dT*dG*d[5mC]*d[5mC]*d[5mC]*eA*eG*eA*eT*e[5mC]) [compound 416541],53%
10,416498 (antisense eG*eG*e[5mC]*e[5mC]*eA*dG*dT*dG*dG*d[5mC]*d[5mC]*dA*dT*dG*d[5mC]*eA*eT*e[5mC]*e[5mC]*e[5mC]) [compound 416498],5%
11,416562 (antisense eA*eA*eA*eG*e[5mC]*dA*dG*dA*dG*d[5mC]*d[5mC]*dA*dG*d[5mC]*dT*e[5mC]*eT*eG*eA*e[5mC]) [compound 416562],12%
12,416442 (antisense eA*eG*e[5mC]*eA*eG*dA*dT*dA*dT*dA*dG*dG*dA*d[5mC]*dT*eG*eG*eA*eG*e[5mC]) [compound 416442],57%
13,416500 (antisense e[5mC]*eT*eG*eA*eA*d[5mC]*dA*d[5mC]*d[5mC]*d[5mC]*d[5mC]*dA*dG*d[5mC]*dT*eG*eA*eG*eA*eG) [compound 416500],1%

# Same assay, conditions: HepB3 cells; gapmers (5-10-5, 3-14-3, 2-13-5 MOE) targeted to nucleobases 4868 to 4899 of SEQ ID NO: 1
row,Substance,% Inhibition of human Factor 7 mRNA levels
1,422219 (antisense e[5mC]*e[5mC]*eG*dA*dG*dT*dT*d[5mC]*dT*dG*d[5mC]*dA*dG*dG*dA*dG*d[5mC]*eG*eG*e[5mC]) [compound 422219],65%
2,422220 (antisense e[5mC]*e[5mC]*e[5mC]*dG*dA*dG*dT*dT*d[5mC]*dT*dG*d[5mC]*dA*dG*dG*dA*dG*e[5mC]*eG*eG) [compound 422220],59%
3,422223 (antisense eG*eA*eG*d[5mC]*d[5mC]*d[5mC]*dG*dA*dG*dT*dT*d[5mC]*dT*dG*d[5mC]*dA*dG*eG*eA*eG) [compound 422223],48%
4,422299 (antisense eA*eG*d[5mC]*d[5mC]*d[5mC]*dG*dA*dG*dT*dT*d[5mC]*dT*dG*d[5mC]*dA*eG*eG*eA*eG*e[5mC]) [compound 422299],64%
5,422301 (antisense eG*eG*dA*dG*d[5mC]*d[5mC]*d[5mC]*dG*dA*dG*dT*dT*d[5mC]*dT*dG*e[5mC]*eA*eG*eG*eA) [compound 422301],67%

# Same assay, conditions: HepB3 cells; gapmers targeted to nucleobases 11830 to 11869 of SEQ ID NO: 1 (Table 9)
row,Substance,% Inhibition of human Factor 7 mRNA levels
1,422249 (antisense eT*eG*dG*d[5mC]*dT*dG*dA*dG*dG*dA*dG*dA*d[5mC]*dA*dA*eT*eG*eG*eT*e[5mC]) [compound 422249],52%
2,422158 (antisense eA*eT*eG*dG*dT*d[5mC]*dA*dG*dG*dG*d[5mC]*dT*dG*dG*dT*dT*dT*eT*eG*eG) [compound 422158],49%
3,422236 (antisense eA*eA*dT*dG*dG*dT*d[5mC]*dA*dG*dG*dG*d[5mC]*dT*dG*dG*eT*eT*eT*eT*eG) [compound 422236],44%

# Same assay, conditions: HepB3 cells; gapmers targeted to nucleobases 13760 to 13789 of SEQ ID NO: 1 (Table 10)
row,Substance,% Inhibition of human Factor 7 mRNA levels
1,422260 (antisense eG*e[5mC]*dG*d[5mC]*d[5mC]*dA*d[5mC]*d[5mC]*d[5mC]*dG*d[5mC]*d[5mC]*dG*dG*d[5mC]*eT*e[5mC]*eT*eG*e[5mC]) [compound 422260],56%
2,422262 (antisense e[5mC]*eT*dG*d[5mC]*dG*d[5mC]*d[5mC]*dA*d[5mC]*d[5mC]*d[5mC]*dG*d[5mC]*d[5mC]*dG*eG*e[5mC]*eT*e[5mC]*eT) [compound 422262],0%

# Same assay, conditions: HepB3 cells; gapmers targeted to nucleobases 14707 to 14732 of SEQ ID NO: 1 (Table 11)
row,Substance,% Inhibition of human Factor 7 mRNA levels
1,422282 (antisense eA*eG*d[5mC]*dA*dG*d[5mC]*d[5mC]*dT*dG*dA*dG*dG*d[5mC]*d[5mC]*dA*eG*e[5mC]*eA*eG*eA) [compound 422282],48%

# Same assay, conditions: HepB3 cells; gapmers targeted to nucleobases 15188 to 15211 of SEQ ID NO: 1 (Table 13)
row,Substance,% Inhibition of human Factor 7 mRNA levels
1,422230 (antisense e[5mC]*eA*dT*dG*d[5mC]*dA*dT*dG*dG*dT*dG*dA*dT*dG*d[5mC]*eT*eT*e[5mC]*eT*eG) [compound 422230],65%
